Assay results taken from patent US5230998A, “Method for the prescreening of drugs targeted to the V3 hypervariable loop of the HIV-1 envelope glycoprotein gp 120” (priority 1991, dated 1993).
“Also recorded” adds a separate entry of the source.

Key:
[1] = molecular target: peptide (845-862) from gp41 (Human immunodeficiency virus type 1 BH10, UniProt P03375); experiment: Inhibition by ATA of reaction between peptide and homologous antibodies (FIG. 1B); type: binding, HIV-1 BH 10; conditions: ATA 50 μg/ml
Experimental: FIG. 1 comprises four bar graphs concerning the interaction of aurintricarboxylic acid (ATA) with the V3 hypervariable loop of gp120 and with distinct peptides derived from the sequence of gp160. FIG. 1A: Inhibitory effect of ATA (50 μg/ml) on the reaction of antibodies to peptides from the sequence of HIV-1 gp160 with gp120 or gp160. gp120-coated wells were used for antisera to peptides from gp120 and gp160-coated wells were used with antisera to peptides from gp41. FIG. 1B: Inhibitory effect of ATA (50 μg/ml) on the reaction between antibodies to peptides from gp120/gp41 and homologous peptides. FIG. 1C: binding of ATA to wells coated with distinct peptides from the sequence of gp160, as determined by subsequent binding of anti-ATA antibodies. FIG. ID: Net electric charge of peptides from the sequence of gp160, determined by subtracting the number of aspartic (D) and glutamic (E) residues from the sum of lysine (K) and arginine (R) residues present in distinct segments of the gp160 sequence. The horizontal dotted line indicates the boundary between non-significant and significant inhibition, established from three times repeated experiments.
Wells of 96 well polystyrene plates (Immulon 2, Dynatech Laboratories, Inc., Chantilly, Va.) were coated with synthetic peptides (200 μl; 20μg/ml in 0.1 M Tris-HCl, pH 8.8) overnight at 20° C. The peptides were from the sequence of HIV-1, clone BH 10 envelope glycoproteins gp120 and gp41 (Neurath, A. R., Strick, N., and Lee, E. Y. S. (1990), "B-cell Epitope Mapping of Human Immunodeficiency virus (HIV-1) Envelope Glycoprotein with Long (19 to 36-residue) Synthetic Peptides", J. Gen. Virol., 71., 85-95) and from V3 hypervariable loops of 21 distinct HIV-1 isolates (clones) Neurath, A. R., and Strick, N., (1990), "Confronting the Hypervariability of an Immunodominant Epitope Eliciting Virus Neutralizing Antibodies from the Envelope Glycoprotein of the Human Immunodeficiency Virus Type 1 (HIV-1)", Molec. Immunol., 27, 539-549. The latter peptides corresponded to full-length V3 loops generated by disulfide bonds between N- and C- terminal cysteine residues. After washing with 0.14 M NaCl, 0.01 M Tris, 0.02% NaN3 (TS), the wells were postcoated with a mixture of bovine serum albumin (BSA) and gelatine (10 and 2.5 mg/ml, respectively) in TS. […]
To define sites on gp120/gp41 reacting with ATA, the inhibitory effect of this compound was studied by RIA tests using gp120- and gp160-coated wells, respectively, and antisera (final dilutions 1:150) against synthetic peptides from the entire sequence of gp120/gp41 of HIV-1 BH 10. […] Attached rabbit IgG was detected using ^125 I-labeled anti-rabbit IgG, as described before (Neurath et al., 1990, J. Gen. Virol., 71, 85-95). […]

HIV-1 = conditions: literature; listed as ATA; cited from earlier work
[2] = molecular target: T1, control peptide (518-542) (Human immunodeficiency virus type 1 BH10, UniProt P03375); experiment: Attachment of ATA determined by anti-ATA antibodies (double antibody RIA); type: binding, HIV-1; conditions: FIG. 2
T1 construct: cut from Env gp160
Experimental: Antibodies to ATA were detected by double antibody RIA using wells coated with an ATA-ovalbumin conjugate. This conjugate was prepared in the same way as described for the ATA-BSA conjugate. Dilution endpoints of anti-ATA antibodies, determined as described by Ritchie, D. G., Nickerson, J. M., and Fuller, G. M. (1983), "Two Simple Programs for the Analysis of Data from Enzyme-linked Immunosorbent Assays (ELISA) on a Programmable Desk-top Calculator," Methods in Enzymology, 92, 577-588) of the two antisera were: 1:2,700 and 1:150,000, respectively. The second antiserum was used for subsequent RIA tests.
ATA was also added to a control peptide, (518-542), and to wells coated with gelatin only. After incubation for 4 hours at 20° C., excess ATA was removed, the wells were washed with TS and attached ATA was determined by double-antibody RIA using serial dilutions of the anti-ATA antiserum. Similar tests were carried out with serum from the same rabbit before immunization with the ATA-BSA conjugate; the corresponding results (100-450 cpm) were subtracted from cpm corresponding to RIA results obtained with the anti-ATA antiserum. For additional assays aimed at determining the binding of ATA to synthetic peptides from gp120 and gp41 of HIV-1 BH 10 and to V3 hypervariable loop peptides from 20 additional HIV-1 isolates, anti-ATA antiserum was used at a final dilution of 1:800.

[3] = test system: gp120 expressed on the surface of HIV-1-infected cells; conditions: literature; cited from earlier work

Chain of peptide (845-862) from gp41 (P03375 512-856): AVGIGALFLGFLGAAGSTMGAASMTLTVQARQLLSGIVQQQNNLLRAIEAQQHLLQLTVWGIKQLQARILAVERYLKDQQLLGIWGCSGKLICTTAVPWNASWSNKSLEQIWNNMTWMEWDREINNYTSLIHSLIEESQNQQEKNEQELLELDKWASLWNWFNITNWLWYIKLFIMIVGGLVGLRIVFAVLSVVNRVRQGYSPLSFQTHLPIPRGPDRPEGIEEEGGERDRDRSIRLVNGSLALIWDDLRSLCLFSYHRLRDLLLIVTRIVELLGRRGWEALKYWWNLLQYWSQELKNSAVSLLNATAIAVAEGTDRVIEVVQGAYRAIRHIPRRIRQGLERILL
T1 sequence (P03375 518-542): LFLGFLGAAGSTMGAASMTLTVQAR

In the case of `O=C(O)C1=CC(=C(c2ccc(O)c(C(=O)O)c2)c2ccc(O)c(C(=O)O)c2)C=CC1=O` [substance #122, aurintricarboxylic acid], the “inhibition of reaction of peptide with homologous antibodies” value [1] is listed as “Inhibition was also observed”, the “inhibition of HIV-1 replication / antiviral activity” value (HIV-1) is listed as “inhibited the replication of HIV-1 in vitro; also recorded: inhibit the cytopathogenicity and replication of the human immunodeficiency virus type 1” and the “binding of ATA to control peptide (anti-ATA antibodies)” value [2] is listed as “not with gelatin or a control peptide (518-542)”. The “inhibition of the reaction of gp120 on infected cells with monoclonal anti-gp120 antibodies” value [3] was “inhibit the reaction of gp120 expressed on the surface of HIV-1-infected cells with monoclonal anti-gp120 antibodies”.
